Several values for one entry are separate records, joined by “and”; a condition that tells them apart may be missing. Identical values can stand only once. Toxic doses and inconclusive results are not listed. Peptide text beside a SMILES is read from it.
System: P388 leukemia ip, CD2F1 mice, survival T/C
Experiment: NCI In Vivo Anticancer Drug Screen. Data for tumor model P388 Leukemia (intraperitoneal) in CD2F1 (CDF1) mice
Conditions: endpoint: median survival time, higher = longer survival
Protocol: The antitumor activity of compounds was measured in mice bearing transplantable tumors. Survival or tumor size were measured and the results are expressed as the measurement made in the treated group (T) divided by the measurement made in the vehicle treated control group (C). The tumor model used in this assay is P388 Leukemia (intraperitoneal) in CD2F1 (CDF1) mice

[1] = dose: 12.5 mg/kg/injection, schedule: Q01DX005 (ip), vehicle: Klucel (hydroxypropylcellulose) (HPC)
[2] = dose: 50.0 mg/kg/injection, schedule: Q01DX009 (ip), vehicle: saline with Tween-80
[3] = dose: 100.0 mg/kg/injection, schedule: Q01DX009 (ip), vehicle: saline with Tween-80
[4] = dose: 50.0 mg/kg/injection, schedule: Q01DX009 (ip), vehicle: saline
[5] = dose: 100.0 mg/kg/injection, schedule: Q01DX009 (ip), vehicle: saline
[6] = dose: 200.0 mg/kg/injection, schedule: Q01DX009 (ip), vehicle: saline
[7] = dose: 50.0 mg/kg/injection, schedule: Q01DX005 (ip), vehicle: Klucel (hydroxypropylcellulose) (HPC)
[8] = dose: 100.0 mg/kg/injection, schedule: Q01DX005 (ip), vehicle: Klucel (hydroxypropylcellulose) (HPC)
[9] = dose: 200.0 mg/kg/injection, schedule: Q01DX005 (ip), vehicle: Klucel (hydroxypropylcellulose) (HPC)
[10] = dose: 50.0 mg/kg/injection, schedule: Q01DX005 (ip), vehicle: saline with Tween-80
[11] = dose: 100.0 mg/kg/injection, schedule: Q01DX005 (ip), vehicle: saline with Tween-80
[12] = dose: 200.0 mg/kg/injection, schedule: Q01DX005 (ip), vehicle: saline with Tween-80
[13] = dose: 12.5 mg/kg/injection, schedule: Q01DX009 (ip), vehicle: saline with Tween-80
[14] = dose: 25.0 mg/kg/injection, schedule: Q01DX009 (ip), vehicle: saline with Tween-80

## CCCCN(CCCC)C(=N)c1ccccc1Cl
dose: 6.25 mg/kg/injection, schedule: Q01DX005 (ip), vehicle: Klucel (hydroxypropylcellulose) (HPC)
  T/C: 103 % of control
[1]
  T/C: 99 % of control

## CC(CCCN(CCCl)CCCl)Nc1ccnc2cc(Cl)ccc12 (stereo not drawn)
dose: 0.12 mg/kg/injection, schedule: Q01DX009 (ip), vehicle: saline + alcohol
  T/C: 100 % of control
dose: 0.5 mg/kg/injection, schedule: Q01DX009 (ip), vehicle: saline sonified
  T/C: 155 % of control
dose: 0.66 mg/kg/injection, schedule: Q01DX009 (ip), vehicle: saline
  T/C: 159 % of control
dose: 1.0 mg/kg/injection, schedule: Q01DX009 (ip), vehicle: saline sonified
  T/C: 155 % of control
dose: 1.5 mg/kg/injection, schedule: Q01DX009 (ip), vehicle: saline
  T/C: 159 % of control
dose: 2.0 mg/kg/injection, schedule: Q01DX009 (ip), vehicle: saline sonified
  T/C: 105 % of control

## CC(=O)Oc1cc2c(cc1C(NC(N)=O)c1ccc3c(c1)OCO3)OCO2 (stereo not drawn)
dose: 60.0 mg/kg/injection, schedule: Q01DX005 (ip), vehicle: Klucel (hydroxypropylcellulose) (HPC)
  T/C: 100 % of control
dose: 120.0 mg/kg/injection, schedule: Q01DX005 (ip), vehicle: Klucel (hydroxypropylcellulose) (HPC)
  T/C: 93 % of control
dose: 240.0 mg/kg/injection, schedule: Q01DX005 (ip), vehicle: Klucel (hydroxypropylcellulose) (HPC)
  T/C: 92 % of control

## COc1cc(C(=O)CCCC(=O)O)cc(OC)c1OC
[2]
  T/C: 96 % of control
[3]
  T/C: 92 % of control
dose: 200.0 mg/kg/injection, schedule: Q01DX009 (ip), vehicle: saline with Tween-80
  T/C: 88 % of control

## NCCCC(NN)C(=O)O (stereo not drawn)
dose: 3.3 mg/kg/injection, schedule: Q01DX009 (ip), vehicle: saline
  T/C: 101 % of control and 90 % of control
dose: 6.6 mg/kg/injection, schedule: Q01DX009 (ip), vehicle: saline
  T/C: 100 % of control and 95 % of control
dose: 7.5 mg/kg/injection, schedule: Q01DX009 (ip), vehicle: saline
  T/C: 100 % of control
dose: 10.0 mg/kg/injection, schedule: Q01DX009 (ip), vehicle: saline
  T/C: 99 % of control and 97 % of control
dose: 15.0 mg/kg/injection, schedule: Q01DX009 (ip), vehicle: saline
  T/C: 109 % of control and 93 % of control
dose: 22.5 mg/kg/injection, schedule: Q01DX009 (ip), vehicle: saline
  T/C: 102 % of control and 110 % of control
dose: 30.0 mg/kg/injection, schedule: Q01DX009 (ip), vehicle: saline
  T/C: 103 % of control

## Cc1cccc(Cl)c1NC(=O)NCCCN1CCCCC1C (stereo not drawn)
dose: 60.0 mg/kg/injection, schedule: Q01DX005 (ip), vehicle: saline with Tween-80
  T/C: 94 % of control
dose: 120.0 mg/kg/injection, schedule: Q01DX005 (ip), vehicle: saline with Tween-80
  T/C: 87 % of control

## C/C(C/C(C)=N/O)=N/O
[4]
  T/C: 99 % of control
[5]
  T/C: 97 % of control
[6]
  T/C: 91 % of control

## COc1cccc2c1C(=O)c1c(O)c3c(c(O)c1C2=O)C[C@@](O)(C(O)O)C[C@@H]3OC1CC(N)C(O)C(C)O1 (stereo partly drawn)
dose: 2.0 mg/kg/injection, schedule: Q01DX009 (ip), vehicle: water
  T/C: 168 % of control
dose: 4.0 mg/kg/injection, schedule: Q01DX009 (ip), vehicle: water
  T/C: 154 % of control
dose: 100.0 mg/kg/injection, schedule: Q04DX003 (ip), vehicle: water
  T/C: 109 % of control and 121 % of control

## OCC1OC(OC2C3CSC(O3)C(O)C2O)C(O)C(O)C1O (stereo not drawn)
[4]
  T/C: 105 % of control
[5]
  T/C: 106 % of control
[6]
  T/C: 106 % of control

## Cc1ccc(NC(=O)NNC(=O)CSC2CCc3ccccc32)c(C)c1 (stereo not drawn)
[7]
  T/C: 92 % of control
[8]
  T/C: 92 % of control
[9]
  T/C: 90 % of control

## O=C(Nc1cccc2c1C(=O)c1cccc(Nc3ccc(NC(=O)c4ccccc4)c4c3C(=O)c3ccccc3C4=O)c1C2=O)c1ccccc1
[10]
  T/C: 95 % of control
[11]
  T/C: 89 % of control
[12]
  T/C: 93 % of control

## N=C(N)c1ccc(NC(=S)Nc2ccc(C(=N)N)cc2)cc1
dose: 6.25 mg/kg/injection, schedule: Q01DX009 (ip), vehicle: saline
  T/C: 101 % of control
dose: 12.5 mg/kg/injection, schedule: Q01DX009 (ip), vehicle: saline
  T/C: 99 % of control
dose: 25.0 mg/kg/injection, schedule: Q01DX009 (ip), vehicle: saline
  T/C: 99 % of control

## CNC(=O)OCc1cnc2ccc(OC)cc2c1COC(=O)NC
[7]
  T/C: 92 % of control
[8]
  T/C: 99 % of control
[9]
  T/C: 102 % of control

## NC1=C(N2CC2)C(=O)C(N)=C(N2CC2)C1=O
dose: 0.05 mg/kg/injection, schedule: Q01DX009 (ip), vehicle: saline
  T/C: 177 % of control
dose: 0.1 mg/kg/injection, schedule: Q01DX009 (ip), vehicle: saline
  T/C: 187 % of control and 223 % of control
dose: 0.2 mg/kg/injection, schedule: Q01DX009 (ip), vehicle: saline
  T/C: 256 % of control
dose: 0.3 mg/kg/injection, schedule: Q01DX009 (ip), vehicle: saline
  T/C: 225 % of control

## O=[N+]([O-])c1cccc(SNCCO)c1
[13]
  T/C: 108 % of control
[14]
  T/C: 100 % of control
[2]
  T/C: 100 % of control and 94 % of control

## CCCCCOC(=O)c1ccc(O)cc1
[13]
  T/C: 108 % of control
[14]
  T/C: 100 % of control
[2]
  T/C: 99 % of control and 100 % of control
[3]
  T/C: 94 % of control

## Cc1nc2ccc3c(ccc4nc(C)c(N=Nc5ccc(C(=N)N)cc5)c(O)c43)c2c(O)c1N=Nc1ccc(C(=N)N)cc1
[10]
  T/C: 114 % of control
[11]
  T/C: 116 % of control
[12]
  T/C: 116 % of control

## C=CCc1ccccc1OC
dose: 50.0 mg/kg/injection, schedule: Q04DX003 (ip), vehicle: saline
  T/C: 100 % of control
dose: 100.0 mg/kg/injection, schedule: Q04DX003 (ip), vehicle: saline
  T/C: 95 % of control
dose: 200.0 mg/kg/injection, schedule: Q04DX003 (ip), vehicle: saline
  T/C: 100 % of control

## CCCOC(=O)c1ccc2nc(NC(=O)OC)[nH]c2c1
[10]
  T/C: 96 % of control
[11]
  T/C: 91 % of control
[12]
  T/C: 97 % of control

## NC(=S)N1N=C(c2cccc([N+](=O)[O-])c2)CCC1=O
dose: 25.0 mg/kg/injection, schedule: Q04DX003 (ip), vehicle: saline with Tween-80
  T/C: 100 % of control
dose: 50.0 mg/kg/injection, schedule: Q04DX003 (ip), vehicle: saline with Tween-80
  T/C: 103 % of control
dose: 100.0 mg/kg/injection, schedule: Q04DX003 (ip), vehicle: saline with Tween-80
  T/C: 100 % of control
dose: 200.0 mg/kg/injection, schedule: Q04DX003 (ip), vehicle: saline with Tween-80
  T/C: 101 % of control

## COC(=O)C1C2CC3c4c(c5ccc(OC)cc5n4[N+](=O)[O-])CCN3CC2CC(OC(=O)c2cc(OC)c(OC)c(OC)c2)C1OC (stereo not drawn)
[1]
  T/C: 96 % of control
dose: 25.0 mg/kg/injection, schedule: Q01DX005 (ip), vehicle: Klucel (hydroxypropylcellulose) (HPC)
  T/C: 98 % of control
[7]
  T/C: 104 % of control
[8]
  T/C: 114 % of control
[9]
  T/C: 88 % of control

## Cc1c2oc3c(C)ccc(C(=O)OCCN4CCCCC4)c3nc-2c(C(=O)OCCN2CCCCC2)c(N)c1=O
dose: 6.25 mg/kg/injection, schedule: Q01DX009 (ip), vehicle: saline with Tween-80
  T/C: 100 % of control
[13]
  T/C: 99 % of control
[14]
  T/C: 107 % of control
[2]
  T/C: 113 % of control

## Cc1nc2ncnc(Cl)c2[nH]1
dose: 50.0 mg/kg/injection, schedule: Q01DX005 (ip), vehicle: saline
  T/C: 99 % of control
dose: 100.0 mg/kg/injection, schedule: Q01DX005 (ip), vehicle: saline
  T/C: 105 % of control
dose: 200.0 mg/kg/injection, schedule: Q01DX005 (ip), vehicle: saline
  T/C: 96 % of control

## CC(NC(=O)C(Cc1c[nH]c2ccccc12)NC(=O)OCc1ccccc1)C(=O)O (stereo not drawn)
[10]
  T/C: 119 % of control
[11]
  T/C: 103 % of control
[12]
  T/C: 97 % of control

## NC(Cc1ccccc1)C(=O)NC(CCC(=O)O)C(=O)NC(CCC(=O)O)C(=O)O (stereo not drawn) (H-Phe-Glu-Glu-OH; configuration not given here)
[7]
  T/C: 103 % of control
[8]
  T/C: 100 % of control
[9]
  T/C: 96 % of control

## CCC1(C)c2cc(C)c(C(C)=O)cc2C(C)(C)C1C (stereo not drawn)
[14]
  T/C: 100 % of control
[2]
  T/C: 101 % of control
[3]
  T/C: 100 % of control

## CC1(CCBr)C(=O)NC(=O)NC1=O
[10]
  T/C: 101 % of control
[11]
  T/C: 101 % of control
[12]
  T/C: 105 % of control

## CNC(=S)N/N=C\C(C)=N/Nc1ccc([N+](=O)[O-])cc1
[4]
  T/C: 94 % of control
[5]
  T/C: 93 % of control
[6]
  T/C: 87 % of control

## CC1(C)COC(=O)/C1=C/C#N
[7]
  T/C: 106 % of control
[8]
  T/C: 98 % of control
[9]
  T/C: 90 % of control
